The supplement of paper PMC10307832

Legend:
Assay in all cases: relative viability (nuclei count vs DMSO), 5 days (fraction); higher = more cells survive
CX-5461 + Olaparib = compound: Cc1cnc(CNC(=O)c2c(=O)c3ccc(N4CCCN(C)CC4)nc3n3c2sc2ccccc23)cn1 [CX-5461] + O=C(c1cc(Cc2n[nH]c(=O)c3ccccc23)ccc1F)N1CCN(C(=O)C2CC2)CC1 [Olaparib] (partner 8 µM)
Procedure, shortened: (§1)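 A single step with final 0.05% Triton X-100, 1% formaldehyde and 1 ug/ml Hoechst fixed the cells and stained nuclei 5 days after treatment. Lung cancer cell lines in 1536-well plates had been treated by pin tool the day after seeding with one drug alone or a fixed anchor-drug dose plus five library-drug doses (not always all listed) in √10 steps, and nuclei were counted on 4× images. Relative viability is the ratio of nuclei in treated wells to nuclei in vehicle wells, taken as the median of duplicate plates.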

IMD-0354 + Linsitinib = compound: O=C(Nc1cc(C(F)(F)F)cc(C(F)(F)F)c1)c1cc(Cl)ccc1O [IMD-0354] + C[C@]1(O)C[C@@H](c2nc(-c3ccc4ccc(-c5ccccc5)nc4c3)c3c(N)nccn32)C1 [Linsitinib] (partner 1 µM)
Procedure, shortened: as §1

IMD-0354 + Bortezomib = compound: O=C(Nc1cc(C(F)(F)F)cc(C(F)(F)F)c1)c1cc(Cl)ccc1O [IMD-0354] + CC(C)C[C@H](NC(=O)[C@H](Cc1ccccc1)NC(=O)c1cnccn1)B(O)O [Bortezomib] (partner 0.002 µM)
Procedure, shortened: as §1

CX-5461 + Alpelisib = compound: Cc1cnc(CNC(=O)c2c(=O)c3ccc(N4CCCN(C)CC4)nc3n3c2sc2ccccc23)cn1 [CX-5461] + Cc1nc(NC(=O)N2CCC[C@H]2C(N)=O)sc1-c1ccnc(C(C)(C)C(F)(F)F)c1 [Alpelisib] (partner 2 µM)
Procedure, shortened: as §1

Cell Line	relative viability (CX-5461 + Olaparib; first compound 0.01 µM)	relative viability (CX-5461 + Olaparib; first compound 0.03162 µM)	relative viability (CX-5461 + Olaparib; first compound 0.1 µM)	relative viability (CX-5461 + Olaparib; first compound 0.3162 µM)	relative viability (CX-5461 + Olaparib; first compound 1 µM)	relative viability (IMD-0354 + Linsitinib; first compound 0.04 µM)	relative viability (IMD-0354 + Linsitinib; first compound 0.1265 µM)	relative viability (IMD-0354 + Linsitinib; first compound 0.4 µM)	relative viability (IMD-0354 + Linsitinib; first compound 1.265 µM)	relative viability (IMD-0354 + Linsitinib; first compound 4 µM)	relative viability (IMD-0354 + Bortezomib; first compound 0.04 µM)	relative viability (IMD-0354 + Bortezomib; first compound 0.1265 µM)	relative viability (IMD-0354 + Bortezomib; first compound 0.4 µM)	relative viability (IMD-0354 + Bortezomib; first compound 1.265 µM)	relative viability (IMD-0354 + Bortezomib; first compound 4 µM)	relative viability (CX-5461 + Alpelisib; first compound 0.01 µM)	relative viability (CX-5461 + Alpelisib; first compound 0.03162 µM)	relative viability (CX-5461 + Alpelisib; first compound 0.3162 µM)	relative viability (CX-5461 + Alpelisib; first compound 1 µM)	relative viability (CX-5461 + Alpelisib; first compound 0.1 µM)
NCI-H1666	0.708	0.731	0.748	0.696	0.676	0.747	0.957	0.609	0.17	0.299	0.667	0.804	0.641	0.257	0.169	1.01	0.983	0.924	0.416	
LC-2-ad	0.643	0.694	0.689	0.667	0.617	1.02	0.844	0.369	0.108	0.123	1.02	0.991	0.385	0.129	0.119	0.885	0.9	0.981	0.561	0.805
SW 1573	0.395	0.468	0.29	0.438	0.141	0.764	0.697	0.589	0.493	0.102	1.38	0.96	0.479	0.563	0.132	0.733	0.788	0.822	0.36	0.91
COR-L 105	0.658	0.654	0.718	0.675	0.447	1.05	0.682	0.638	0.613	0.265	0.757	0.663	0.76	0.239	0.274	1.14	0.942	0.851	0.414	1.26
NCI-H1975	0.898	0.822	0.68	0.853	0.558	1.15	0.938	0.517	0.178	0.207	0.371	0.442	0.345	0.201	0.213	0.74	0.641	0.64	0.408	0.614
Calu-6	0.523	0.546	0.482	0.543	0.253	0.92	0.859	0.862	0.0995	0.0777	1.1	1.1	0.673	0.167	0.124	0.984	1.15	1.07	0.304	0.916
NCI-H1993	1.19	1.1	1.1	0.976	1.01	0.671	0.747	0.696	0.491	0.567	1.03	1.28	0.578	0.506	0.517	0.721	0.706	0.577	0.605	0.667
RERF-LC-KJ	0.785	0.827	0.619	0.848	0.415	0.948	0.944	0.66	0.298	0.208	1.15	1.17	0.875	0.489	0.254	0.832	0.951	0.754	0.773	0.933
NCI-H23	0.376	0.303	0.326	0.333	0.287	0.643	0.646	0.425	0.318	0.19	1.09	0.906	0.542	0.208	0.219	0.616	0.865	0.689	0.586	0.717
HCC-366	0.444	0.444	0.429	0.315	0.273	0.947	0.85	0.221	0.365	0.0421	1.2	0.885	0.281	0.099	0.0336	0.591	0.529	0.507	0.234	0.33
EMC-BAC-2	0.452	0.476	0.383	0.343	0.324	0.909	0.825	0.549	0.801	0.207	1.17	1.03	0.553	0.634	0.217	0.752	0.833	0.698	0.717	0.782
NCI-H2405	0.9	0.891	0.866	0.792	0.639	1.18	1.06	0.695	0.335	0.185	1.04	1.04	0.732	0.498	0.302	0.851	0.871	0.525	0.624	0.907
EPLC-272H	0.712	0.871	0.785	0.74	0.493	1.3	1.09	0.626	0.945	0.31	0.966	0.986	0.686	0.955	0.266	0.974	1.06		0.876	0.961
EBC-1	0.684	0.701	0.595	0.706	0.579	0.845	0.703	0.741	0.113	0.164	0.54	0.59	0.471	0.184	0.195	0.899	0.943	0.775	0.425	0.75
NCI-H1915	0.259	0.255	0.242	0.262	0.252	0.968	1.12	0.944	0.866	0.255	0.833	1	0.396	0.738	0.183	1.07	1.12	1.04	1.03	1.09
NCI-H596	0.719	0.715	0.626	1.13	0.676	0.973	1.05	0.839	1.21	0.682	0.931	1.15	0.846	1.08	0.629	0.509	0.494	0.524	0.441	0.52
